Reference: patent US20080027087A1 (AMPLA Pharmaceuticals, Inc., priority 2006, published 2008)

What was measured:
[1] = acute administration: wet mash intake, food intake and body weight in lean male C57BL/6J mice; assay type: in vivo; conditions: 10 mg/kg orally, one-way ANOVA
[2] = body weight of diet-induced obese male C57BL/6J mice, repeated oral administration for 28 days; assay type: in vivo; conditions: for reduction of body weight: 28 days dosing, diet-induced obese mice
Description: Sibutramine, which is currently used clinically, and rimonabant, which has recently received regulatory approval for the management of obesity were used as reference compounds.
Sixty-five C57BL/6J mice (7-8 weeks of age) were ordered from Charles River, Margate, Kent. Mice were group housed in polypropylene cages with free access to a high fat diet (D12451 45% of Kcal derived from fat; Research Diets, N.J., USA) and tap water at all times. Animals were maintained at 21±4° C. and 55±20% humidity on a normal phase 12 h light-dark cycle (lights on 04:30 h)
Animals were exposed to the high fat diet for 16 weeks. During this time body weight was recorded weekly. At the end of 14 weeks animals were singly housed in polypropylene cages for a further two week period (weeks 14-16) and placed on reverse phase lighting (lights off for 8 h from 9.30-17.30 h) during which time the room was illuminated by red light. Animals were dosed with vehicle orally throughout the baseline period. Body weight and food and water intake was recorded daily. Towards the end of the baseline period animals were allocated to one of seven groups (see table 2 below). Upon completion of the baseline period, mice were dosed for 28 days with vehicle or test drug as described below.
Body weight and food and water intake were recorded daily. Following drug administration the animals were examined and any overt behaviour was recorded. For all dosing, the morning session was timed such that approximately half the mice were dosed at the time of lights out (09:30).
The test compounds were dissolved in 1% methylcellulose. […] Drug doses were expressed as free base.
Resulting body weights, food intake and water intake were expressed as mean values ±SEM, and the SEMs are calculated from residuals of the statistical model. Body weight data was analysed by ANCOVA with Day 1 as covariate followed by appropriate comparisons (two-tailed) to determine significant differences from the control group. […] Daily food and water intake data was analysed by ANOVA.

CB1 receptor [3] = biological target: T1, CB1 receptor (Homo sapiens, UniProt P21554); assay: functional activity versus the CB1 receptor
CB1 receptor [4] = biological target: T1, CB1 receptor; assay: [35S]GTPγS binding assay on CHO-k1 cell membranes; assay type: biochemical; parameters: expressed in transfected cells; host or cells: CHO-k1 cell membranes
Description: [^35S]GTPγS binding assays were performed with CHO-k1 cell membranes stably expressing human CB1 receptors in 96-well ScintiPlate (PerkinElmer). The membranes (12.5 μg/well) were preincubated with compound 7 in the binding buffer (50 mM Tris-HCl, pH 7.4, 100 mM NaCl, 3 mM MgCl2, 0.2 mM EDTA, 0.2% BSA and 10 μM GDP) at 30° C. for 30 min, then added various concentrations of agonists (WIN 55212-2 or CP 55,940) and [^35S]GTPγS (0.2 nM) in a final volume of 200 μl. Reactions were carried out at 30° C. for 60 min, followed by centrifugation of plate at […] for 15 min. After removing supernatant, the radioactivity was quantitated on a TopCounter.

CB2 receptor = biological target: T2, CB2 receptor (Homo sapiens, UniProt P34972); assay: Ca2+i response to 2-AG in CB2 receptor bearing cells, dose-response with or without compound; assay type: cell-based; conditions: 2-AG with or without compound, FIG. 2
T2 construct: host or cells: CB2 receptor bearing cells (host not described)

[5] = biological target: T3, mouse CB1 (mouse brain membrane) (Mus musculus, UniProt P47746); assay: competition ligand binding assay, mouse brain membrane preparations
T3 construct: human CB1 receptors or mouse brain membrane preparations in 96-well plate format; from tissue; host or cells: mouse brain membrane preparations
Description: (§1) Competition ligand binding assays were performed with the non-selective cannabinoid receptor agonist ([^3H]CP 55,940) (0.75 nM) in the binding buffer containing 50 mM Tris-HCl, pH 7.4, 3 mM MgCl2, 1 mM EDTA, 0.2% BSA using CHO-k1 cell membranes stably expressing human CB1 receptors or mouse brain membrane preparations in 96-well plate format. The receptor membranes (10 μg/well) were pre-incubated with different concentrations of tested compounds in the binding buffer at room temperature for 30 min prior to addition of 0.75 nM [^3H]CP 55,940 in a final volume of 100 μl. The binding was carried out at room temperature for another 2 h. To determine the non-specific binding, experiments were also performed in the presence of 10 μM unlabeled CP 55,940. Binding was terminated by addition of cold binding buffer and filtrated on Whatman GF/B glass-fiber filters using a sampling manifold. The filters were washed 6 times with cold binding buffer and air-dried overnight. The radioactivity was quantitated on a TopCounter (PerkinElmer) after adding scintillation fluid. Specific binding was defined as the difference between the binding in the presence and absence of 10 μM unlabeled CP 55, 940.

[6] = biological target: T4, Human Cannabinoid 1 (CB1) receptor (Homo sapiens, UniProt P21554); assay: Ca2+i response to 2-AG in CB1 cells (Indo-1, DSIS flow cytometry), dose-response with or without compound; assay type: cell-based; conditions: 2-AG with or without compound, FIG. 2
T4 construct: expressed in transfected cells; host or cells: CHO cells stably expressing GqΔGi chimera
From the text: cDNA for the G protein GqΔGi chimera was generated by PCR and inserted into the polylinker region of the pcDNA3/hygro+ vector (Invitrogen). Stable expression of GqΔGi chimera protein in CHO cell line was generated under hygromycin selection. Human Cannabinoid 1 (CB1) cDNA was inserted into the polylinker region of the pcDNA3.1/(+) vector (Invitrogen) and DNA was introduced into the GqΔGi/CHO cell line by Lipofectamine reagent (Invitrogen). […]
Cell line optimization was done by a proprietary method using our novel automated Direct Sample Injection System (DSIS, ‘Direct mixing and injection for high throughput fluidic systems’ Patent Application Number 20050249635) in conjunction with response. Intracellular Ca^2+ (Ca^2+i) levels were measured with Ca^2+ chelating fluorescent probes. […]
The probe-loaded CB1 and Control cell mixture was placed in the Cell Suspension System on the DSIS where they were continuously rocked to keep them in a suspended state. […] The DSIS software, NVS Sampler, recorded a timing file and the CyAn software, Summit, recorded a data file. These two files were then compiled and analyzed by our proprietary software, NVS Analyzer, to determine the percent of cells that responded to each concentration. The data was transferred to GraphPAD Prism for a non-linear regression curve fit that determined the EC50. […]

CB1 receptor [7] = biological target: T1, CB1 receptor; assay: competition ligand binding assay, CHO-k1 cell membranes; parameters: expressed in transfected cells; host or cells: CHO-k1 cell membranes; conditions: 0.75 nM radioligand, FIG. 6
Description: as §1

CB1 receptor [8] = biological target: T1, CB1 receptor; assay: dissociation kinetics assay with [3H]CP 55,940 on CHO-k1 cell membranes; assay type: binding; parameters: expressed in transfected cells; host or cells: CHO-k1 cell membranes; conditions: 0.75 nM [3H]CP 55,940, room temperature, FIG. 3
Description: Dissociation kinetics assays were performed with the non-selective cannabinoid receptor agonist ([^3H]CP 55,940) (0.75 nM) in the binding buffer containing 50 mM Tris-HCl, pH 7.4, 3 mM MgCl2, 1 mM EDTA, 0.2% BSA using CHO-k1 cell membranes stably expressing human CB1 receptors in 96-well plate format. The CBI receptor membranes (10 μg/well) were incubated with 0.75 nM [^3H]CP 55,940 in 100 μl binding buffer at room temperature for 2 h. Dissociation was initiated with addition of 100 μl unlabeled CP 55,940 (10 μM) in binding buffer in the absence or presence of different concentrations of compounds (compound 7). Dissociation was carried out at room temperature for indicated time. To determine the non-specific binding, experiments were also performed in the presence of 10 μM unlabeled CP 55,940. Binding was terminated by addition of cold binding buffer and filtrated on Whatman GF/B glass-fiber filters using a sampling manifold. The filters were washed 6 times with cold binding buffer and air-dried overnight. The radioactivity was quantitated on a TopCounter (PerkinElmer) after adding scintillation fluid. Specific binding was defined as the difference between the binding in the presence and absence of 10 μM unlabeled CP 55,940.

T1 sequence (P21554 whole entry): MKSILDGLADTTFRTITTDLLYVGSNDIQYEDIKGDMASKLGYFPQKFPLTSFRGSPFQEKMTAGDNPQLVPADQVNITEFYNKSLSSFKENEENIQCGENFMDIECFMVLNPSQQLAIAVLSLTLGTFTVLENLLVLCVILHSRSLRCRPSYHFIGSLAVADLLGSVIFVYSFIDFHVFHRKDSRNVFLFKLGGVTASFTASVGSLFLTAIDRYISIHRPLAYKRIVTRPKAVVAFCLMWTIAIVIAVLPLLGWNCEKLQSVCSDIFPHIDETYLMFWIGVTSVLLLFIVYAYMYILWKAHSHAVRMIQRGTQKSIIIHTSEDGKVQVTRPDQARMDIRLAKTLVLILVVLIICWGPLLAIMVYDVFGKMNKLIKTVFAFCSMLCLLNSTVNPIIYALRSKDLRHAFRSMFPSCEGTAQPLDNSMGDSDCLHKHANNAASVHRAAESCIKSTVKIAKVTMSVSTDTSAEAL
T3 sequence (P47746 whole entry): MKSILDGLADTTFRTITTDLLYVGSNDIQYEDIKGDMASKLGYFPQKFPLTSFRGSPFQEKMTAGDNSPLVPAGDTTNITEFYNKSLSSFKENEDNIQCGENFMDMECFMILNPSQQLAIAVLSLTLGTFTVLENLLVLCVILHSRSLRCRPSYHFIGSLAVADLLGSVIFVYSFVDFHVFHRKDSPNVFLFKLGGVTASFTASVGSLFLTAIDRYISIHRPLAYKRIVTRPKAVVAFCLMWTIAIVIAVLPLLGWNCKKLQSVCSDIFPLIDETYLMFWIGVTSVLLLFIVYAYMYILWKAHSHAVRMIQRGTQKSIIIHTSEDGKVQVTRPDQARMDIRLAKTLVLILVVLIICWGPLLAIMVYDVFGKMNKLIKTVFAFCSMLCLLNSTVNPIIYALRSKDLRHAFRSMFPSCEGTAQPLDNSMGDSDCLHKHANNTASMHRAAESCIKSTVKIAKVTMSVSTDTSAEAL
T4 sequence (P21554 whole entry): as the sequence (P21554 whole entry) above
T2 sequence (P34972 whole entry): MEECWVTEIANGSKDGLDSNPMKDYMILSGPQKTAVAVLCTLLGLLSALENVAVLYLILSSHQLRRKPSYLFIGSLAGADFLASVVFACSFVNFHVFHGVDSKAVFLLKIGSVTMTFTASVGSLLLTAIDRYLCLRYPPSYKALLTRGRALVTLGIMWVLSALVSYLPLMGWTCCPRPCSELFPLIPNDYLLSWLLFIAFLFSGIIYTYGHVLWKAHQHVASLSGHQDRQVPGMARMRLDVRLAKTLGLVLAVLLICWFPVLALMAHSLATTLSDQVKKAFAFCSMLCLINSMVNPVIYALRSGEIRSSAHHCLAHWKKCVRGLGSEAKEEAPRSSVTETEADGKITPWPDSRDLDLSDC

SMILES: Cc1c(C(=O)NN2CCCCC2)nn(-c2ccc(Cl)cc2Cl)c1-c1ccc(Cl)cc1 [rimonabant]
- 24 hour body weight change, difference versus vehicle ([1]; FIG. 10): No significant differences
- daily food intake, difference versus vehicle ([1]; FIG. 15): No significant differences
- body weight, difference versus vehicle ([1]; FIG. 16): No significant differences
- reduction of body weight ([2]; 10 mg/kg po): 15%
- weight reduction as compared to vehicle, significance ([2]; day 29, po, Dunnett's test p<0.001, FIG. 8): statistically significant weight reduction

SMILES: CNCC[C@@H](Oc1ccc(C(F)(F)F)cc1)c1ccccc1 [(R)-fluoxetine]
- functional activity versus the CB1 receptor (CB1 receptor [3]): antagonist

SMILES: Fc1ccc(C(OCCCc2c[nH]cn2)c2ccc(F)cc2)cc1 [compound 7]
- pA2 estimation using CP 55940 as an agonist (CB1 receptor [4]; CB1 cell line, FIG. 4): did not support an allosteric effect
- antagonist versus inverse agonist activity in [35S]GTPγS binding (CB1 receptor [4]; response relative to basal levels, FIG. 5): inverse agonist activity
- effect on the 2-AG dose response (Ca2+i) of CB2 receptor bearing cells (CB2 receptor): No effect
- inhibition of agonist (CP 55940) binding ([5]; mouse brain membrane, FIG. 7): inhibited
- inhibition of antagonist/inverse agonist (SR 141716) binding ([5]; mouse brain membrane, FIG. 7): inhibited
- inhibition of binding of [3H]CP 55,940 ([5]; mouse brain membranes, 0.75 nM radioligand, FIG. 6): almost fully inhibited
- effect on the 2-AG dose response (Ca2+i) of CB1 cells [6]: right shift
- inhibition of binding of [3H]CP 55,940 (CB1 receptor [7]): partially inhibited
- effect on the dissociation rate of [3H]CP 55,940 (CB1 receptor [8]): no effect

SMILES: CNCC[C@H](Oc1ccc(C(F)(F)F)cc1)c1ccccc1 [(S)-Fluoxetine]
- functional activity versus the CB1 receptor (CB1 receptor [3]): inverse agonist

SMILES: CC(C)CC(N(C)C)C1(c2ccc(Cl)cc2)CCC1 (stereo not drawn) [sibutramine]
- reduction of body weight ([2]; 20 mg/kg po): 2%

SMILES: NCCC(Oc1ccc(C(F)(F)F)cc1)c1ccccc1 (racemic) [norfluoxetine, 3-(4-trifluoromethylphenoxy)-3-phenylpropylamine]
- functional activity versus the CB1 receptor (CB1 receptor [3]): antagonist
